Assay results: the NIST ThermoML archive (doi:10.1021/je049762q)
Numbers after ± are expanded uncertainties.

Experiment: molar heat capacity at constant pressure
Settings: 101.33 kPa

Clc1cc(Cl)cc(Cl)c1 [1,3,5-trichlorobenzene]
molar heat capacity at constant pressure [J/K/mol]
Settings	Crystal	Liquid
171.08 K	107.71 ± 0.62	–
172.15 K	108.11 ± 0.62	–
174.44 K	109.1 ± 0.62	–
174.82 K	109.23 ± 0.62	–
177.47 K	110.35 ± 0.62	–
177.76 K	110.52 ± 0.62	–
180 K	111.41 ± 0.62	–
180.1 K	111.45 ± 0.62	–
181.06 K	111.92 ± 0.62	–
182.71 K	112.52 ± 0.63	–
184.34 K	113.28 ± 0.63	–
185.3 K	113.6 ± 0.63	–
187.58 K	114.63 ± 0.63	–
187.87 K	114.66 ± 0.63	–
190 K	115.57 ± 0.63	–
190.43 K	115.78 ± 0.63	–
190.81 K	115.98 ± 0.63	–
192.97 K	116.82 ± 0.63	–
194.01 K	117.3 ± 0.63	–
195.49 K	117.83 ± 0.64	–
197.19 K	118.6 ± 0.64	–
198 K	118.86 ± 0.64	–
200 K	119.79 ± 0.64	–
200.35 K	119.94 ± 0.64	–
202.96 K	120.92 ± 0.64	–
203.48 K	121.26 ± 0.64	–
205.42 K	121.91 ± 0.64	–
206.6 K	122.49 ± 0.65	–
207.87 K	122.92 ± 0.65	–
209.7 K	123.75 ± 0.65	–
210 K	123.84 ± 0.65	–
210.3 K	123.89 ± 0.65	–
212.71 K	124.89 ± 0.65	–
212.77 K	125.04 ± 0.65	–
215.12 K	125.93 ± 0.65	–
215.83 K	126.21 ± 0.65	–
217.51 K	126.8 ± 0.65	–
218.86 K	127.47 ± 0.66	–
219.88 K	127.77 ± 0.66	–
220 K	127.82 ± 0.66	–
221.88 K	128.7 ± 0.66	–
222.25 K	128.72 ± 0.66	–
224.6 K	129.66 ± 0.66	–
224.87 K	129.89 ± 0.66	–
226.94 K	130.61 ± 0.66	–
227.85 K	131.11 ± 0.66	–
229.27 K	131.59 ± 0.66	–
230 K	131.95 ± 0.66	–
230.81 K	132.32 ± 0.66	–
231.58 K	132.53 ± 0.67	–
233.76 K	133.48 ± 0.67	–
236.18 K	134.38 ± 0.67	–
236.69 K	134.73 ± 0.67	–
238.46 K	135.33 ± 0.67	–
239.6 K	135.87 ± 0.67	–
240 K	136.02 ± 0.67	–
240.73 K	136.28 ± 0.67	–
242.5 K	137.03 ± 0.67	–
242.99 K	137.17 ± 0.67	–
245.24 K	138.06 ± 0.68	–
245.38 K	138.2 ± 0.68	–
247.48 K	138.95 ± 0.68	–
248.24 K	139.34 ± 0.68	–
249.71 K	139.83 ± 0.68	–
250 K	139.96 ± 0.68	–
251.09 K	140.46 ± 0.68	–
251.93 K	140.7 ± 0.68	–
253.93 K	141.6 ± 0.68	–
256.34 K	142.49 ± 0.69	–
256.76 K	142.74 ± 0.69	–
258.53 K	143.37 ± 0.69	–
259.57 K	143.79 ± 0.69	–
260 K	143.95 ± 0.69	–
260.71 K	144.19 ± 0.69	–
262.36 K	144.92 ± 0.69	–
262.88 K	145.05 ± 0.69	–
265.05 K	145.93 ± 0.69	–
265.15 K	146.04 ± 0.69	–
267.2 K	146.81 ± 0.69	–
267.91 K	147.2 ± 0.69	–
269.34 K	147.62 ± 0.7	–
270 K	147.9 ± 0.7	–
270.67 K	148.17 ± 0.7	–
271.48 K	148.45 ± 0.7	–
273.41 K	149.19 ± 0.7	–
275.71 K	150.21 ± 0.7	–
276.13 K	150.38 ± 0.7	–
277.82 K	150.9 ± 0.7	–
278.84 K	151.41 ± 0.7	–
279.93 K	151.88 ± 0.7	–
280 K	151.91 ± 0.7	–
281.54 K	152.27 ± 0.7	–
282.02 K	152.47 ± 0.71	–
284.11 K	153.34 ± 0.71	–
286.19 K	153.9 ± 0.71	–
288.26 K	154.74 ± 0.71	–
290 K	155.34 ± 0.71	–
290.32 K	155.45 ± 0.71	–
292.38 K	156.18 ± 0.71	–
294.42 K	157 ± 0.71	–
295.88 K	157.42 ± 0.71	–
296.46 K	157.62 ± 0.72	–
298.15 K	158.32 ± 0.72	–
298.44 K	158.35 ± 0.72	–
300 K	159.02 ± 0.72	–
300.52 K	159.26 ± 0.72	–
300.98 K	159.48 ± 0.72	–
303.51 K	160.28 ± 0.72	–
306.03 K	161.24 ± 0.72	–
306.98 K	161.57 ± 0.72	–
308.54 K	162.23 ± 0.72	–
310 K	162.81 ± 0.73	–
310.04 K	162.82 ± 0.73	–
311.04 K	163.32 ± 0.73	–
311.61 K	163.35 ± 0.73	–
313.11 K	164.04 ± 0.73	–
313.53 K	164.32 ± 0.73	–
314.66 K	164.78 ± 0.73	–
316 K	165.48 ± 0.73	–
317.72 K	166.19 ± 0.73	–
318.47 K	166.69 ± 0.73	–
320 K	167.31 ± 0.73	–
320.77 K	167.5 ± 0.74	–
320.93 K	167.74 ± 0.74	–
323.38 K	168.94 ± 0.74	–
323.83 K	169.15 ± 0.74	–
325.82 K	170.31 ± 0.74	–
326.88 K	171.2 ± 0.74	–
328.25 K	171.54 ± 0.74	–
330 K	172.45 ± 0.74	–
335.92 K	175.78 ± 0.75	197.88 ± 0.8
338.89 K	–	198.6 ± 0.8
340 K	–	198.76 ± 0.8
341.83 K	–	199.12 ± 0.8
341.91 K	–	199.27 ± 0.8
344.76 K	–	199.68 ± 0.8
344.94 K	–	199.89 ± 0.8
347.69 K	–	200.32 ± 0.8
347.97 K	–	200.6 ± 0.8
350 K	–	200.94 ± 0.8
350.61 K	–	200.99 ± 0.8
350.99 K	–	201.16 ± 0.8
353.52 K	–	201.63 ± 0.8
354 K	–	201.88 ± 0.8
356.43 K	–	202.27 ± 0.8
357.01 K	–	202.62 ± 0.81
359.34 K	–	202.96 ± 0.81
360 K	–	203.18 ± 0.81
360.01 K	–	203.24 ± 0.81
362.24 K	–	203.68 ± 0.81
363.01 K	–	203.85 ± 0.81
365.13 K	–	204.35 ± 0.81
366 K	–	204.62 ± 0.81
368.02 K	–	204.99 ± 0.81
368.98 K	–	205.5 ± 0.81
370 K	–	205.46 ± 0.81
370.9 K	–	205.72 ± 0.81
371.95 K	–	206 ± 0.81
373.78 K	–	206.29 ± 0.81
374.93 K	–	206.68 ± 0.81
376.65 K	–	206.96 ± 0.81
377.9 K	–	207.35 ± 0.81
379.51 K	–	207.51 ± 0.82
380 K	–	207.79 ± 0.81
380.86 K	–	207.96 ± 0.82
